The results in this text go back to patent US20230192700A1, “PYRAZOLOPYRAZINES ACTING ON CANCERS VIA INHIBITION OF CDK12” (Bayer Aktiengesellschaft, priority 2020, published 2023).

One assay concerns the target T1, CDK12 (Homo sapiens, UniProt Q9NYV4).
T1 construct: endogenous in cells; host or cells: CAL-120 human breast cancer cells (DSMZ ACC 459)
Put plainly: CDK12 protein level in CAL-120 cells (Protein Simple). The assay is classed as cell-based. As to conditions: 18 h, CDK12/HSP90 peak area ratio, median, read-out: CDK12 protein level in CAL-120 breast ca cells DC50 - [mol/l] (median). Here is the method: 5. CDK12 protein level: Protein Simple (CDK12, CAL-120), Westernblot (CDK9, 12, 13)
CAL-120 human breast cancer cells (DSMZ ACC 459) were seeded at 300,000 cells/well in 6-well plates containing 2 mL of growth medium (DMEM, 10%FCS, glutamine) and incubated for 24 h at 37° C. in an humidified incubator. Test compounds were added at various concentrations, control wells received solvent (DMSO), and the plates were incubated for another 18h at 37° C. Cells were washed 2 times with PBS and lysed in 75 microL lysis buffer (MSD-Puffer (MSD, #R6OTX-2), +1% SDS+PhosSTOP (Roche #04906837001)+complete mini (Roche #04693159001)) by scraping. The lysates were pushed 2 times through Qiashedders followed by centrifugation at 14,000 rpm for 30-50 sec. The supernatant was stored at -20° C. […] CDK12 and HSP90 (loading control) were detected using anti-human CDK12 antibody (Cell Signaling Technologies (CST) #11793) at 1:25 dilution and anti-human HSP90 antibody (CST #4877) at 1:5,000 dilution. CDK12 and HSP90 peak areas were determined using Protein Simple Compass software. Ratio of CDK12/HSP90 peak areas were calculated for each sample, and DC50 values (degrading concentration to achieve 50% reduction relative to vehicle treated control) were determined by means of a 4 parameter fit.

In assay [1] the test system is BRCA1 mRNA expression in CAL-120 cells. Nature of the assay: qRT-PCR assay: inhibition of BRCA1 mRNA expression in CAL-120 cells. The assay is classed as cell-based. As to conditions: Homo sapiens, median, read-out: RTqPCR-CAL-120 IC50 [mol/l] BRCA1 (median). Here is the method:
3. qRT-PCR Assay: BRCA1, ATR, MCL1 in MDA-MB-231, CAL-120
Tissue cultured human MDA-MB-231 human breast cancer cells were plated in 500 microL per well at 200,000 cells/well in a 24 well microtiter plate. After 24 h, the cells were exposed continuously for 24 h to test substances (substances were added with Tecan HP D300 Dispenser). RNA was prepared using Qiagen RNeasy MiniKit (#74106), RNA was quantified using a NanoDrop Equipment, and 600 nano gamms of RNA was coverted to cDNA using a SuperScript VILO kit (Thermofisher #11755050) followed by qPCR amplification. BRCA1 and ATR gene expression was measured by RT-qPCR and normalised to GAPDH housekeeping gene expression. qPCR primer sets have been purchased from Thermo Fisher Scientific/Applied Biosystems: BRCA1, # Hs 01556193; ATR, #Hs 00992123; GAPDH, #Hs 03929097.
(Real-time PCR tracks product formation cycle by cycle.)

T1 sequence (Q9NYV4 whole entry): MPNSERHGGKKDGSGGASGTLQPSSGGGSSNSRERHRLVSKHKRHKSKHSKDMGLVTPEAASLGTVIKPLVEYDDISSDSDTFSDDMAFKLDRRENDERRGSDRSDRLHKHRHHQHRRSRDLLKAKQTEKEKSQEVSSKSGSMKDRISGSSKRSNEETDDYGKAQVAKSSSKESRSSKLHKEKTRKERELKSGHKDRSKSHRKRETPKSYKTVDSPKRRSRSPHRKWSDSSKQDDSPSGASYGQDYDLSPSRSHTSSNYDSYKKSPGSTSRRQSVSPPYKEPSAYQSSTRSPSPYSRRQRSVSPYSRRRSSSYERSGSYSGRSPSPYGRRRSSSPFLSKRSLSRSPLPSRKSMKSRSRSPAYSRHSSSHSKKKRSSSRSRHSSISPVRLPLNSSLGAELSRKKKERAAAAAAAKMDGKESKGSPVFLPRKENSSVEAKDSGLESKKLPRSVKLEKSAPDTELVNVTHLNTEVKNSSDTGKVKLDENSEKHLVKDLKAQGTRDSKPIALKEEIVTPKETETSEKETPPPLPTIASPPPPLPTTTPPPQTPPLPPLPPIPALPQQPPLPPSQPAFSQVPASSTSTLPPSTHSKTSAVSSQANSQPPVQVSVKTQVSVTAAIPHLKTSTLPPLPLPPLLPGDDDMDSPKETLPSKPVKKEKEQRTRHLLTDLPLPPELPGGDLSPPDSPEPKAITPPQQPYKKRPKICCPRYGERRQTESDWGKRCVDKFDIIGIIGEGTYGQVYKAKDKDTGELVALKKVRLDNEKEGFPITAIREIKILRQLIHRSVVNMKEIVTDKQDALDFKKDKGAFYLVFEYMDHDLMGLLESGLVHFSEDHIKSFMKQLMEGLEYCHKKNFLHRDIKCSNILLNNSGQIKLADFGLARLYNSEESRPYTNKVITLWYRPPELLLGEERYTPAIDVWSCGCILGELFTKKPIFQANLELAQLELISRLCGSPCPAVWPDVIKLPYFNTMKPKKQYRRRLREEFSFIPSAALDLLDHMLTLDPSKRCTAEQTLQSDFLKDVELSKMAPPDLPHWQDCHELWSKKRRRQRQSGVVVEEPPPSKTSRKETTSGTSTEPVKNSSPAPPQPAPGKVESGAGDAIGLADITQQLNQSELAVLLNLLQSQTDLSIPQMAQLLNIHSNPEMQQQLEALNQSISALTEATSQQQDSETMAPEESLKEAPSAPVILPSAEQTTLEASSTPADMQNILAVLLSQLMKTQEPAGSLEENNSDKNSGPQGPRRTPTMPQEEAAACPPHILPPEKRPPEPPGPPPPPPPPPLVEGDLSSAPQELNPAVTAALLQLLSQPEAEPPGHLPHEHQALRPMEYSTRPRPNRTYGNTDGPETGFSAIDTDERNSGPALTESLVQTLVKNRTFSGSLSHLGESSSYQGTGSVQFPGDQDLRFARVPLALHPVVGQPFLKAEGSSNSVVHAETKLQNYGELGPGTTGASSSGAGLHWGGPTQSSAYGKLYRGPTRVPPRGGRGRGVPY
T1 sequence (O75909 whole entry partner): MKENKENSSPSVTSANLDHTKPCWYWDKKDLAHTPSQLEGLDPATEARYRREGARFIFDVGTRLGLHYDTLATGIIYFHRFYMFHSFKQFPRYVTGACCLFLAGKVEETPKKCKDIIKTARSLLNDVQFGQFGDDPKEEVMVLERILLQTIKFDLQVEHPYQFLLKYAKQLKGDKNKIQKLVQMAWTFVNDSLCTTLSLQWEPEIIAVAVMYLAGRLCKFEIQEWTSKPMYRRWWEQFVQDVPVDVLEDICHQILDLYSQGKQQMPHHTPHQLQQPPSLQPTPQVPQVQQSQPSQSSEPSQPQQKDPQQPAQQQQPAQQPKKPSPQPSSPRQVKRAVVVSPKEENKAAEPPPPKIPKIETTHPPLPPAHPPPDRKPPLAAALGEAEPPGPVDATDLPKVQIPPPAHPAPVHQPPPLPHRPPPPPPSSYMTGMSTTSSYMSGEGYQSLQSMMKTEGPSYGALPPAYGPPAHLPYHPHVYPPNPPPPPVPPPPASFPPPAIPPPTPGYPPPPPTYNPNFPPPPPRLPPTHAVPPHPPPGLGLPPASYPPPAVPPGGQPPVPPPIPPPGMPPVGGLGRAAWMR

`c1ccc2[nH]c(CNc3nn(C4CCOCC4)c4nc(C5CC5)cnc34)nc2c1` [Example 16, N-[(1H-benzimidazol-2-yl)methyl]-6-cyclopropyl-1-(oxan-4-yl)-1H-pyrazolo[3,4-b]pyrazin-3-amine]: the DC50 at CDK12 was found to be 31.1 nM. The IC50 in assay [1] came to 64.3 nM.
